Reference: patent US20060122181A1, “Heteroaromatic pentacyclic compound and medicinal use thereof” (Japan Tobacco Inc., priority 2003, published 2006)

First: CC(C)CCN(CC(=O)O)Cc1nc(-c2ccc(N(C)Cc3ccc(C4CCCCC4)cc3)cc2)cs1 [Example 3-91]
Second: CN(Cc1nc(-c2ccc(N(C)Cc3ccc(C4CCCCC4)cc3)cc2)cs1)C(=O)NCC(=O)O [Example 3-109]
The melting point of the first is higher: 153 to 154 °C for the first, 149 to 150 °C for the second.

Compared with `CCCC(CCC)c1ccc(OCc2ccc(-c3csc(CN(CC(=O)O)Cc4cn(C)c5ccccc45)c3)cc2)cc1` [Example 4-86], `CCCC(CCC)c1ccc(OCc2ccc(-c3csc(CN(CC(=O)O)Cc4ncc(C(C)(C)C)o4)c3)cc2)cc1` [Example 4-29] is lower in melting point: 170.5 to 171.9 °C for the first, 120.5 °C for the second.

First: CCCC(CCC)c1ccc(N(C)Cc2ccc(-c3csc(CN(C)S(=O)(=O)CCCC(=O)[O-])n3)cc2)cc1.[Na+] [Example 1-16]
Second: CCCC(CCC)c1ccc(CN(C)c2ccc(-c3csc(CN(CC(=O)[O-])C(=O)c4ccc(C(C)C)cc4)n3)cc2)cc1.[Na+] [Example 3-63]
The melting point of the first is higher: 217 to 220 °C for the first, 183 to 188 °C for the second.

First: CCCC(CCC)c1ccc(COc2ccc(-c3csc(CN4Cc5ccccc5C[C@H]4C(=O)[O-])n3)cc2)cc1.[Na+] [Example 3-112]
Second: CCCC(CCC)c1ccc(COc2ccc(-c3csc(CN4Cc5ccccc5CC4C(=O)O)n3)cc2)cc1 (stereo not shown) [Example 3-118]
The melting point of the first is higher: 254 to 255 °C for the first, 127 to 130 °C for the second.

Compared with `CC(C)Cc1ccc(CN(C)c2ccc(-c3csc(CN(CC(=O)O)Cc4ccccc4)n3)cc2)cc1` [Example 3-39], `CC(C)CCSc1ccc(CN(C)c2ccc(-c3csc(CN(CC(=O)O)Cc4ccccc4)n3)cc2)cc1` [Example 3-42] is lower in melting point: 149 to 151 °C for the first, 122 °C for the second.

First: CCCC(CCC)c1ccc(COc2ccc(-c3csc(COc4cncc(C(=O)O)c4)n3)cc2OC)cc1 [Example 3-115]
Second: CCCC(CCC)c1ccc(N(C)Cc2ccc(-c3csc(COc4cncc(C(=O)O)c4)n3)cc2)cc1 [Example 1-4]
The melting point of the first is higher: 156 to 158 °C for the first, 135 to 138 °C for the second.

First: CCCC(CCC)c1ccc(COc2ccc(-c3csc(CN(CC(=O)O)C(=O)c4ccccc4)n3)cc2)cc1 [Example 3-22]
Second: CCCC(CCC)c1ccc(COc2ccc(-c3csc(CN(CC(=O)O)C(=O)c4ccc(OC)cc4)n3)cc2)cc1 [Example 3-24]
The melting point of the first is higher: 141 to 144 °C for the first, 99 to 101 °C for the second.

First: CCC(CC)c1ccc2c(c1)nc(-c1csc(COc3ccc(C(=O)O)cc3)n1)n2CC1CCCCC1 [Example 3-132]
Second: CCC(CC)c1ccc2nc(-c3csc(COc4ccc(C(=O)O)cc4)n3)n(Cc3ccc(C(C)=O)cc3)c2c1 [Example 3-131]
The melting point of the first is higher: 176 to 183 °C for the first, 138 to 139 °C for the second.

First: O=C(O)CN(Cc1ccccc1)Cc1cc(-c2ccc(COc3cc(Cl)cc(Cl)c3)cc2)cs1 [Example 4-105]
Second: CCC(CC)c1ccc(COc2ccc(-c3csc(CN(CC(=O)O)Cc4ccccc4)n3)cc2)cc1 [Example 3-11]
The melting point of the first is higher: 202.3 to 204.2 °C for the first, 144 to 146 °C for the second.

Compared with `CCCC(CCC)c1ccc(OCc2ccc(-c3ccc(C(=O)N(CC(=O)O)Cc4cccnc4)s3)cc2)cc1` [Example 4-47], `CCCC(CCC)c1ccc(OCc2ccc(-c3ccc(CN(CC(=O)O)CC(=O)Nc4ccccc4)s3)cc2)cc1` [Example 4-10] is lower in melting point: 153 to 156 °C for the first, 122 to 124 °C for the second.

First: CCCC(CCC)c1ccc(CN(C)C(=O)c2ccc(-c3csc(CN(CC(=O)O)Cc4ccccc4)n3)cc2)cc1 [Example 1-56]
Second: CCCC(CCC)c1ccc(CNC(=O)c2ccc(-c3csc(CN(CC(=O)O)Cc4ccccc4)n3)cc2)cc1 [Example 1-55]
The melting point of the first is lower: 65 to 71 °C for the first, 141 to 143 °C for the second.

Compared with `CCC(CC)c1ccc(COc2ccc(-c3csc(CN(CC(=O)O)Cc4ccccn4)n3)cc2)cc1` [Example 3-20], `CCC(CC)c1ccc(COc2ccc(-c3csc(CN(CC(=O)O)Cc4ccc(C(F)(F)F)cc4)n3)cc2)cc1` [Example 3-16] is lower in melting point: 156 to 157 °C for the first, 136 to 138 °C for the second.

First: CCCC(CCC)c1ccc(Cn2c(-c3csc(CN4CCC(c5ccc(C(=O)O)cc5)CC4)n3)nc3ccccc32)cc1 [Example 1-171]
Second: CCCC(CCC)c1ccc(COc2ccc(-c3csc(CN4CCN(c5ccc(C(=O)O)cc5)CC4)n3)cc2)cc1 [Example 3-127]
The melting point of the first is lower: 208.5 to 209.8 °C for the first, 241 to 243 °C for the second.

Compared with `CN(Cc1ccc(C2CCCCC2)cc1)c1ccc(-c2csc(CNC(C(=O)O)c3ccccc3)n2)cc1` (stereo not shown) [Example 3-77], `CN(Cc1ccc(C2CCCCC2)cc1)c1ccc(-c2csc(CNS(=O)(=O)c3ccc(C(=O)O)cc3)n2)cc1` [Example 3-97] is higher in melting point: 183 to 186 °C for the first, 202 to 203 °C for the second.

Compared with `CCCC(CCC)c1ccc(OCc2ccc(-c3csc(Cn4nc(C(=O)O)cc4C)n3)cc2)cc1` [Example 1-177], `CCCC(CCC)c1ccc(OCc2ccc(-c3csc(Cn4nc(C)cc4C(=O)O)n3)cc2)cc1` [Example 1-176] is lower in melting point: 185 to 194 °C for the first, 141 to 143 °C for the second.

First: CN(Cc1ccccc1)c1ccc(-c2csc(CN(CC(=O)O)Cc3ccc4ccccc4n3)n2)cc1 [Example 3-55]
Second: CN(Cc1ccc(-c2ccccc2)cc1)c1ccc(-c2csc(CN(CC(=O)O)Cc3ccccc3)n2)cc1 [Example 3-37]
The melting point of the first is lower: 144 to 147 °C for the first, 167 to 170 °C for the second.

First: CCC(CC)c1ccc(N(Cc2ccc(-c3csc(COc4ccc(C(=O)O)cc4)n3)cc2)C(C)C)cc1 [Example 1-2]
Second: CCC(CC)c1ccc(N(Cc2ccc(-c3csc(COc4ccc(C(=O)O)cn4)n3)cc2)C(C)C)cc1 [Example 1-3]
The melting point of the first is higher: 219 °C for the first, 177 to 181 °C for the second.

First: CC(C)Cc1ccc(CN(C)c2ccc(-c3csc(CNC(Cc4ccc(Cl)cc4)C(=O)O)n3)cc2)cc1 (stereo not shown) [Example 3-79]
Second: CC(C)Cc1ccc(CN(C)c2ccc(-c3csc(CN4Cc5ccccc5CC4C(=O)O)n3)cc2)cc1 (stereo not shown) [Example 3-72]
The melting point of the first is higher: 199 to 204 °C for the first, 168 to 170 °C for the second.

First: CCCC(CCC)c1ccc(N(Cc2ccc3nc(-c4csc(CN(CC(=O)O)Cc5nc(C(C)(C)C)cs5)n4)oc3c2)C(C)C)cc1 [Example 1-138]
Second: CCCC(CCC)c1ccc(N(Cc2ccc(-c3csc(CN(CC(=O)O)Cc4nc(C)c(C)s4)n3)cc2)C(C)C)cc1 [Example 1-146]
The melting point of the first is lower: 98 to 100 °C for the first, 156 to 157 °C for the second.

`CCN(Cc1ccc(C(C)C)cc1)c1ccc(-c2csc(CN(CC(=O)O)Cc3ccc(C(C)C)cc3)n2)cc1` [Example 3-44] and `CC(C)c1ccc(CN(CC(=O)O)Cc2nc(-c3ccc(N(Cc4ccc(C(C)C)cc4)C(C)C)cc3)cs2)cc1` [Example 3-45] cannot be ordered by melting point: 74 to 78 °C for the first, 77 to 82 °C for the second.

Compared with `CCC(CC)CN(Cc1ccc(-c2csc(COc3cncc(C(=O)O)c3)n2)cc1)c1ccc(C(C)C)cc1` [Example 1-74], `CCCC(CCC)N(Cc1ccc(-c2csc(COc3cncc(C(=O)O)c3)n2)cc1)c1ccc(C(C)C)cc1` [Example 1-7] is higher in melting point: 181 °C for the first, 184 to 185 °C for the second.

First: CC(C)CN(Cc1ccc(-c2csc(CN(CC(=O)O)C(=O)c3ccccn3)n2)cc1)c1ccc(C(C)(C)C)cc1 [Example 1-29]
Second: CC(C)CN(Cc1ccc(-c2csc(CN(CC(=O)O)C(=O)Nc3ccccc3)n2)cc1)c1ccc(C(C)(C)C)cc1 [Example 1-27]
The melting point of the first is higher: 160 °C for the first, 119 °C for the second.

Compared with `CN(Cc1ccc(SCC(C)(C)C)cc1)c1ccc(-c2csc(CN(CC(=O)O)Cc3ccccc3)n2)cc1` [Example 3-41], `CC(C)CN(Cc1ccc(-c2csc(CN(CC(=O)O)Cc3ccccc3)n2)cc1)c1ccc(C(C)(C)C)cc1` [Example 1-23] is lower in melting point: 143 °C for the first, 133 °C for the second.

Compared with `CN(Cc1ccc(C2CCCCC2)cc1)c1ccc(-c2csc(N(C)Cc3ccc(C(=O)O)o3)n2)cc1` [Example 3-75], `CN(Cc1ccc(C2CCCCC2)cc1)c1ccc(-c2csc(CN3CCCC(C(=O)O)C3)n2)cc1` (stereo not shown) [Example 3-66] is higher in melting point: 158 to 161 °C for the first, 176 to 180 °C for the second.

First: CCC(CC)c1ccc(N(Cc2ccc(-c3csc(COc4cc(OC)cc(C(=O)O)c4)n3)cc2)C(C)C)cc1 [Example 1-63]
Second: CCC(CC)c1ccc(N(Cc2ccc(-c3csc(COc4cncc(C(=O)OC)c4)n3)cc2)C(C)C)cc1 [Example 1-89]
The melting point of the first is higher: 131 °C for the first, 111 to 113 °C for the second.

First: CCCC(CCC)c1ccc(OCc2ccc(-c3csc(Cn4nc(C(C)(C)C)cc4C(=O)O)n3)cc2)cc1 [Example 1-179]
Second: CCCC(CCC)c1ccc(COc2ccc(-c3csc(CSc4ccc(C(=O)O)cc4)n3)cc2)cc1 [Example 3-3]
The melting point of the first is higher: 123 to 125 °C for the first, 117 to 118 °C for the second.

First: CCC(CC)c1ccc(N(Cc2ccc(-c3csc(COc4cc(C(=O)O)ccc4N)n3)cc2)C(C)C)cc1 [Example 1-90]
Second: CC(C)c1ccc(CN(c2ccc(-c3csc(CN(CC(=O)O)Cc4ccc(C(C)(C)C)cc4)n3)cc2)C(C)C)cc1 [Example 3-46]
The melting point of the first is higher: 179 to 181 °C for the first, 82 to 87 °C for the second.

First: CCCC(CCC)c1ccc(OCc2ccc(-c3csc(CNC(=O)c4ccc(C(=O)O)cn4)n3)cc2)cc1 [Example 1-163]
Second: CCCC(CCC)c1ccc(OCc2ccc(-c3csc(CN(CC(=O)O)CC(=O)Nc4ccccn4)n3)cc2)cc1 [Example 1-100]
The melting point of the first is higher: 164 to 166 °C for the first, 133.5 °C for the second.

First: CCCC(CCC)c1ccc(NC(=O)c2ccc(-c3csc(CN(CC(=O)O)Cc4ccccc4)n3)cc2)cc1 [Example 1-54]
Second: CCCC(CCC)c1ccc(OCc2ccc(-c3csc(CN4Cc5ccccc5C[C@@H]4C(=O)O)n3)cc2)cc1 [Example 1-47]
The melting point of the first is higher: 201 to 202 °C for the first, 77 to 82 °C for the second.

First: CCCC(CCC)c1ccc(OCc2ccc(-c3ccc(CN(CC(=O)O)Cc4nc5ccccc5[nH]4)s3)cc2)cc1 [Example 4-8]
Second: CCCC(CCC)c1ccc(OCc2ccc(-c3csc(CN(CC(=O)O)CC(=O)Nc4ccc(C(C)C)cc4)c3)cc2)cc1 [Example 4-27]
The melting point of the first is higher: 173 to 175 °C for the first, 164 to 166 °C for the second.

First: CC(C)CC(=O)N(CC(=O)O)Cc1nc(-c2ccc(N(C)Cc3ccc(CC(C)C)cc3)cc2)cs1 [Example 3-59]
Second: O=C(O)c1cccc(C2CCN(Cc3nc(-c4ccc(OCc5cc(C(F)(F)F)cc(C(F)(F)F)c5)cc4)cs3)CC2)c1 [Example 1-174]
The melting point of the first is lower: 117 to 118 °C for the first, 222 to 228 °C for the second.

For `CCCC(CCC)c1ccc(N(Cc2ccc(-c3csc(COc4cncc(C(=O)O)c4)n3)cc2)C(C)C)cc1.[Na+]` [Example 1-68], the melting point was 185 °C (dec.).
In the case of `CCCC(CCC)c1ccc(OCc2ccc(-c3csc(COc4cccnc4C(=O)O)n3)cc2)cc1` [Example 1-82], the melting point is reported as 138.5 °C (dec.).
